According to US8952024B2, “Herbicidal pyrimidone derivatives” (E I du Pont de Nemours and Company, priority 2009, dated 2015):

Columns and labels:
Type in all cases: in vivo
[1] = system: barnyardgrass (Echinochloa crus-galli); assay: Test A pre-/postemergence plant response
Source text: (§1) Seeds of barnyardgrass (Echinochloa crus-galli), large crabgrass (Digitaria sanguinalis), giant foxtail (Setaria faberii), morningglory (Ipomoea spp.), pigweed (Amaranthus retroflexus), velvetleaf (Abutilon theophrasti), wheat (Triticum aestivum) and corn (Zea mays) were planted into a blend of loam soil and sand and treated preemergence with a directed soil spray using test chemicals formulated in a non-phytotoxic solvent mixture which included a surfactant. At the same time these species were also treated with postemergence applications of test compounds formulated in the same manner.
(§2) Plants ranged in height from two to ten cm and were in the one- to two-leaf stage for the postemergence treatment. Treated plants and untreated controls were maintained in a greenhouse for approximately ten days, after which time all treated plants were compared to untreated controls and visually evaluated for injury. Plant response ratings, summarized in Table A, are based on a 0 to 100 scale where 0 is no effect and 100 is complete control. A dash (-) response means no test result.

corn (Zea mays) = assay: Test A pre-/postemergence plant response
Source text: as §1, §2

[2] = system: giant foxtail (Setaria faberii); assay: Test A pre-/postemergence plant response
Source text: as §1, §2

[3] = system: large crabgrass (Digitaria sanguinalis); assay: Test A pre-/postemergence plant response
Source text: as §1, §2

[4] = system: morningglory (Ipomoea spp.); assay: Test A pre-/postemergence plant response
Source text: as §1, §2

[5] = system: pigweed (Amaranthus retroflexus); assay: Test A pre-/postemergence plant response
Source text: as §1, §2

[6] = system: velvetleaf (Abutilon theophrasti); assay: Test A pre-/postemergence plant response
Source text: as §1, §2

[7] = system: wheat (Triticum aestivum); assay: Test A pre-/postemergence plant response
Source text: as §1, §2

[8] = system: barnyardgrass (Echinochloa crus-galli); assay: Test B flooded paddy test; settings: for Plant response rating, Flood, Barnyardgrass: 250 g ai/ha, flooded paddy test, visual rating on 0 to 100 scale (0 no effect, 100 complete control) after 13 to 15 days; for Plant response rating, Barnyardgrass: Flood (flooded paddy test), 13 to 15 days
Source text: (§3) Plant species in the flooded paddy test consisted of rice (Oryza sativa), umbrella sedge (Cyperus difformis), ducksalad (Heteranthera limosa) and barnyardgrass (Echinochloa crus-galli) grown to the 2-leaf stage for testing. At the time of treatment, test pots were flooded with water to 3 cm above the soil surface, treated by application of test compounds directly to the paddy water, and then maintained at that water depth for the duration of the test.
(§4) Treated plants and controls were maintained in a greenhouse for 13 to 15 days, after which time all treated plants were visually evaluated and compared to controls. Plant response ratings, summarized in Table B, are based on a scale of 0 to 100 where 0 is no effect and 100 is complete control. A dash (-) response means no test result.

[9] = system: ducksalad (Heteranthera limosa); assay: Test B flooded paddy test; settings: for Plant response rating, Flood, Ducksalad: 250 g ai/ha, flooded paddy test, visual rating on 0 to 100 scale (0 no effect, 100 complete control) after 13 to 15 days; for Plant response rating, Ducksalad: Flood (flooded paddy test), 13 to 15 days
Source text: as §3, §4

rice (Oryza sativa) = assay: Test B flooded paddy test; settings: for Plant response rating, Rice: Flood (flooded paddy test), 13 to 15 days
Source text: as §3, §4

[10] = system: umbrella sedge (Cyperus difformis); assay: Test B flooded paddy test; settings: for Plant response rating, Flood, Sedge, Umbrella: 250 g ai/ha, flooded paddy test, visual rating on 0 to 100 scale (0 no effect, 100 complete control) after 13 to 15 days; for Plant response rating, Sedge, Umbrella: Flood (flooded paddy test), 13 to 15 days
Source text: as §3, §4

[11] = Postemergence, 125 g ai/ha, visual injury, 0 to 100 scale (0 no effect, 100 complete control), approx. ten days
[12] = Postemergence, 500 g ai/ha, 0 to 100 scale, 0 = no effect, 100 = complete control, approx. ten days
[13] = Preemergence, 125 g ai/ha, 0 to 100 scale, 0 = no effect, 100 = complete control
[14] = Preemergence, 500 g ai/ha, visual injury, 0 to 100 scale (0 no effect, 100 complete control), approx. ten days
[15] = 62 g ai/ha, scale 0 to 100, 0 is no effect, 100 is complete control
[16] = 31 g ai/ha, scale of 0 to 100 where 0 is no effect and 100 is complete control
[17] = 125 g ai/ha, scale 0 to 100, 0 is no effect, 100 is complete control

CSc1ncc(C(=O)C2=C(O)CCCC2=O)c(=O)n1-c1ccccc1 [Compound 30]
Barnyardgrass plant response rating [1, 11]: 10 | Plant response rating, Barnyardgrass [1, 12]: 30 | Plant response rating, Barnyardgrass [1, 13]: 0 | Plant response rating, Barnyardgrass [1, 14]: 40 | Corn plant response rating (corn (Zea mays); [11]): 0 | Plant response rating, Corn (corn (Zea mays); [12]): 0 | Plant response rating, Corn (corn (Zea mays); [13]): 0 | Plant response rating, Corn (corn (Zea mays); [14]): 0 | Foxtail, Giant plant response rating [2, 11]: 10 | Plant response rating, Foxtail, Giant [2, 12]: 40 | Plant response rating, Foxtail, Giant [2, 13]: 0 | Plant response rating, Foxtail, Giant [2, 14]: 10 | Crabgrass, Large plant response rating [3, 11]: 30 | Plant response rating, Crabgrass, Large [3, 12]: 60 | Plant response rating, Crabgrass, Large [3, 13]: 0 | Plant response rating, Crabgrass, Large [3, 14]: 60 | Morningglory plant response rating [4, 11]: 30 | Plant response rating, Morningglory [4, 12]: 50 | Plant response rating, Morningglory [4, 13]: 0 | Plant response rating, Morningglory [4, 14]: 60 | Pigweed plant response rating [5, 11]: 70 | Plant response rating, Pigweed [5, 12]: 80 | Plant response rating, Pigweed [5, 13]: 0 | Plant response rating, Pigweed [5, 14]: 80 | Velvetleaf plant response rating [6, 11]: 100 | Plant response rating, Velvetleaf [6, 13]: 20 | Plant response rating, Velvetleaf [6, 14]: 70 | Wheat plant response rating [7, 11]: 0 | Plant response rating, Wheat [7, 12]: 0 | Plant response rating, Wheat [7, 13]: 0 | Plant response rating, Wheat [7, 14]: 0 | Plant response rating, Flood, Barnyardgrass [8]: 0 | Plant response rating, Barnyardgrass [8, 15]: 0 | Plant response rating, Flood, Ducksalad [9]: 50 | Plant response rating, Ducksalad [9, 15]: 20 | Plant response rating, Flood, Rice (rice (Oryza sativa); 250 g ai/ha, flooded paddy test, visual rating on 0 to 100 scale (0 no effect, 100 complete control) after 13 to 15 days): 0 | Plant response rating, Rice (rice (Oryza sativa); [15]): 0 | Plant response rating, Flood, Sedge, Umbrella [10]: 50 | Plant response rating, Sedge, Umbrella [10, 15]: 20

O=C1CCCC(O)=C1C(=O)c1cnc(-c2ccccc2Cl)n(-c2ccccc2)c1=O [Compound 35]
Barnyardgrass plant response rating [1, 11]: 10 | Plant response rating, Barnyardgrass [1, 12]: 60 | Plant response rating, Barnyardgrass [1, 13]: 0 | Plant response rating, Barnyardgrass [1, 14]: 0 | Corn plant response rating (corn (Zea mays); [11]): 0 | Plant response rating, Corn (corn (Zea mays); [12]): 10 | Plant response rating, Corn (corn (Zea mays); [13]): 0 | Plant response rating, Corn (corn (Zea mays); [14]): 0 | Foxtail, Giant plant response rating [2, 11]: 40 | Plant response rating, Foxtail, Giant [2, 12]: 80 | Plant response rating, Foxtail, Giant [2, 13]: 0 | Plant response rating, Foxtail, Giant [2, 14]: 10 | Crabgrass, Large plant response rating [3, 11]: 50 | Plant response rating, Crabgrass, Large [3, 12]: 80 | Plant response rating, Crabgrass, Large [3, 13]: 10 | Plant response rating, Crabgrass, Large [3, 14]: 60 | Plant response rating, Morningglory [4, 12]: 80 | Plant response rating, Morningglory [4, 14]: 20 | Pigweed plant response rating [5, 11]: 80 | Plant response rating, Pigweed [5, 12]: 100 | Plant response rating, Pigweed [5, 13]: 10 | Plant response rating, Pigweed [5, 14]: 100 | Velvetleaf plant response rating [6, 11]: 100 | Plant response rating, Velvetleaf [6, 12]: 100 | Plant response rating, Velvetleaf [6, 13]: 0 | Plant response rating, Velvetleaf [6, 14]: 70 | Wheat plant response rating [7, 11]: 0 | Plant response rating, Wheat [7, 12]: 0 | Plant response rating, Wheat [7, 13]: 0 | Plant response rating, Wheat [7, 14]: 0 | Plant response rating, Flood, Barnyardgrass [8]: 0 | Plant response rating, Barnyardgrass [8, 16]: 0 | Plant response rating, Barnyardgrass [8, 15]: 0 | Plant response rating, Barnyardgrass [8, 17]: 0 | Plant response rating, Flood, Ducksalad [9]: 0 | Plant response rating, Ducksalad [9, 16]: 0 | Plant response rating, Ducksalad [9, 15]: 0 | Plant response rating, Ducksalad [9, 17]: 0 | Plant response rating, Rice (rice (Oryza sativa); [16]): 0 | Plant response rating, Rice (rice (Oryza sativa); [15]): 0 | Plant response rating, Rice (rice (Oryza sativa); [17]): 0 | Plant response rating, Flood, Sedge, Umbrella [10]: 0 | Plant response rating, Sedge, Umbrella [10, 16]: 0 | Plant response rating, Sedge, Umbrella [10, 15]: 0 | Plant response rating, Sedge, Umbrella [10, 17]: 0
